{"source": "paper PMC7828495", "about": "“Synthesis, Stability, and Antidiabetic Activity Evaluation of (−)-Epigallocatechin Gallate (EGCG) Palmitate Derived from Natural Tea Polyphenols” (Molecules, 2021)", "key": {"human": {"system": "human", "details": "ref Material Safety Data Sheet (MSDS); cited from earlier work"}, "Mouse": {"system": "Mouse", "details": "cited from earlier work"}, "[1]": {"set-up": "method as in PMID 9177723", "details": "humans, single oral intake of 97 mg; cited from earlier work"}, "[2]": {"test": "pH stability in alkalescent condition (HPLC)", "type": "physicochemical", "details": "ethanol/PBS 80:20, pH 7.2, 37 °C, open air, 1.3 mM", "method": "(§1) Since the intestine system is alkalescent, it is necessary to assess the stability of EGCG and PEGCG under this condition.\nEquivalent molar concentrations (1.3 mM) of EGCG and PEGCG were incubated in Pyrex test tubes (20 × 1.6 cm, i.d.) in the open air at 37 °C, respectively, without any agitation. Aliquots (20 µL) of the incubation solution was periodically (1, 2, 5 h) sampled and subjected to HPLC analysis, respectively. HPLC condition was the same as Item 2.5."}, "α-glucosidase": {"target": "T1, α-glucosidase (Saccharomyces cerevisiae, UniProt P53341)", "T1 construct": "purchased Sinopharm Group Chemical Reagent Co. (Shanghai, China)", "T1 sequence (P53341 whole entry)": "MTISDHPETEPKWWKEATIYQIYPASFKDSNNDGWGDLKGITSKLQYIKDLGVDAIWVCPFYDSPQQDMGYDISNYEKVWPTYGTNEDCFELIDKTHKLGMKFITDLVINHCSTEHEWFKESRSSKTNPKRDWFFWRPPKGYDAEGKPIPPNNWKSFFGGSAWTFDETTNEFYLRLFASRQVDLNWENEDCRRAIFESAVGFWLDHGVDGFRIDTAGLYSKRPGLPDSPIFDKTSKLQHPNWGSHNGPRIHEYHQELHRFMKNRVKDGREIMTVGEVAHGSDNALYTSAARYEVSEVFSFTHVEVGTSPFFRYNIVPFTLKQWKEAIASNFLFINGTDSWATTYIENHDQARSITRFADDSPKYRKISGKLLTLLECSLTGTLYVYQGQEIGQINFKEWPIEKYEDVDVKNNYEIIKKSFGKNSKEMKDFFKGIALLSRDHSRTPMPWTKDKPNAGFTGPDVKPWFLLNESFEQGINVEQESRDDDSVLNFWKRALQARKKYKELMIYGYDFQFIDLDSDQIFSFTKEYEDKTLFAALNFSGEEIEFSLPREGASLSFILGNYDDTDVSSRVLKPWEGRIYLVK", "test": "α-Glucosidase inhibition assay (PNPG substrate)", "type": "biochemical", "method": "(§2) All of the other solvents and chemicals used were obtained from Sinopharm Group Chemical Reagent Co., Ltd. (Shanghai, China) and were of analytical grade. Sodium phosphate buffer (PBS) was purchased from Solarbio Co. (Beijing, China) and was prepared to make a concentration of 0.01 M aqueous solution (pH 7.2).\nThe activity of α-glucosidase was determined in a 96-well plate based on 4-Nitrophenyl […]-D-glucopyranoside (PNPG) as a substrate."}, "[3]": {"test": "Storage stability of powder in open air", "type": "physicochemical", "details": "room temperature, 60 d", "description": "To study the storage stability of EGCG and PEGCG powder, […] of the two powders were kept in the open air at room temperature, respectively. After 60 days, aliquots of the two powders were sampled and subjected to HPLC analysis, respectively. The HPLC condition was the same as Item 2.5."}, "[4]": {"set-up": "method as in PMID 9177723", "details": "rats, 56 mg of EGCG orally; cited from earlier work"}, "[5]": {"test": "Thermal stability (TG analysis)", "type": "physicochemical", "details": "30 to 400 °C, 10 °C/min, nitrogen", "method": "The thermal stability behaviors of EGCG and PEGCG were investigated on a TG apparatus (SDT […], TA Instruments, New Castle, DE, USA). About 3.0 mg of each sample was used to perform the analysis by putting the powder on a TG pan. The sample was scanned from 30 to 400 °C with a heating rate of 10 °C/min under a nitrogen atmosphere."}, "[6]": {"set-up": "method as in PMID 16302765, PMID 12499265", "details": "sodium phosphate buffer pH 7.4, 3 h; cited from earlier work"}, "[7]": {"system": "porcine pancreatic α-amylase", "sequence (P06278 30-512)": "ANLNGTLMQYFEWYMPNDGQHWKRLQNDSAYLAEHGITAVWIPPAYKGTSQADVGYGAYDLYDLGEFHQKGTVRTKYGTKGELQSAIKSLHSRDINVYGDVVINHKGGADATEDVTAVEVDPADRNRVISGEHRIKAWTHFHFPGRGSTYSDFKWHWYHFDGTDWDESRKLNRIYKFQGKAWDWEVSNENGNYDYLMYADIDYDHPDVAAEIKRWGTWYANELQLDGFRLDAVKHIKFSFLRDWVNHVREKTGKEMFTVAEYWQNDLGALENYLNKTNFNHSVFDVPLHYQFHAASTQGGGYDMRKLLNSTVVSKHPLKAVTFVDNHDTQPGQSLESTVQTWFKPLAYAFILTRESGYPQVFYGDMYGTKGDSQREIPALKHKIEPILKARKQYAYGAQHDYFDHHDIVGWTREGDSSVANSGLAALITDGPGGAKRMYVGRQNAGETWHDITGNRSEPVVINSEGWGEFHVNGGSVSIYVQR", "test": "α-Amylase inhibition assay", "type": "biochemical", "details": "ratio of IC50 values versus EGCG", "method": "as §2"}, "Solubility in PBS": {"test": "Solubility in PBS", "type": "physicochemical", "description": "as §1"}, "[8]": {"details": "Mouse, acute toxicity, ref Material Safety Data Sheet (MSDS)"}}, "note": "Read-outs that look alike come from different tables or passages of the source.", "data": [{"smiles": "CN(C)c1ccncc1", "note": "[4-dimethylaminopyridine (DMAP), 4-dimethylaminopyridine]", "values": [{"measurement": "Harm to Human Health", "setting": "human", "result": "Irritating to the eyes; eating poisonous"}, {"measurement": "Acute toxicity grade", "setting": "Mouse; [8]", "result": "LD50 250 mg/kg, medium toxicity"}]}, {"smiles": "O=C(O[C@@H]1Cc2c(O)cc(O)cc2O[C@@H]1c1cc(O)c(O)c(O)c1)c1cc(O)c(O)c(O)c1", "note": "[EGCG, (−)-Epigallocatechin gallate]", "values": [{"measurement": "absorbed after oral dose", "setting": "[1]", "result": 0.32, "unit": "%"}, {"measurement": "degraded / hydrolyzed after 1 h", "setting": "[2]", "result": 93, "unit": "%"}, {"measurement": "degraded / hydrolyzed after 5 h", "setting": "[2]", "result": "utterly degraded"}, {"measurement": "IC50", "setting": "α-glucosidase", "result": "11.5 ± 0.02", "unit": "µM"}, {"measurement": "remained after storage", "setting": "[3]", "result": 45, "unit": "%"}, {"measurement": "absorbed after oral dose", "setting": "[4]", "result": 0.01, "unit": "%"}, {"measurement": "thermal decomposition temperature", "setting": "[5]", "result": 234.5, "unit": "°C"}, {"measurement": "EGCG lost", "setting": "[6]", "result": 90, "unit": "%"}]}, {"smiles": "O=C([O-])[O-].[Na+].[Na+]", "note": "[Sodium carbonate]", "values": [{"measurement": "Harm to Human Health", "setting": "human", "result": "Irritant and corrosive"}]}, {"smiles": "CCN(CC)CC", "note": "[Triethylamine]", "values": [{"measurement": "Harm to Human Health", "setting": "human", "result": "strong irritant to the respiratory tract; after inhaling can cause pulmonary edema or even death"}, {"measurement": "Acute toxicity grade", "setting": "Mouse; [8]", "result": "medium toxicity"}, {"measurement": "LD50", "setting": "Mouse; mouse, in vivo", "result": 460, "unit": "mg/kg"}]}, {"smiles": "c1ccncc1", "note": "[Pyridine]", "values": [{"measurement": "Harm to Human Health", "setting": "human", "result": "Strong irritant; anesthetizes the central nervous system"}, {"measurement": "Acute toxicity grade", "setting": "Mouse; mouse, in vivo", "result": "LD50 1580 mg/kg, mild toxicity"}, {"measurement": "LD50", "setting": "Mouse; mouse, in vivo", "result": "LD50 1580 mg/kg, mild toxicity"}]}, {"smiles": "CC(=O)[O-].[Na+]", "note": "[Sodium acetate]", "values": [{"measurement": "Harm to Human Health", "setting": "human", "result": "None"}, {"measurement": "Acute toxicity grade", "setting": "Mouse; mouse, in vivo", "result": "LD50 25,956 mg/kg, non-toxic"}, {"measurement": "LD50", "setting": "Mouse; mouse, in vivo", "result": "LD50 25,956 mg/kg, non-toxic"}]}, {"smiles": "CCCCCCCCCCCCCCCC(=O)Oc1c(O)cc([C@H]2Oc3cc(O)cc(O)c3C[C@H]2OC(=O)c2cc(O)c(O)c(O)c2)cc1O", "note": "[PEGCG, 4′-O-palmitoyl EGCG]", "values": [{"measurement": "degraded / hydrolyzed after 1 h", "setting": "[2]", "result": "most of the PEGCG was hydrolyzed to EGCG and its dimers"}, {"measurement": "degraded / hydrolyzed after 5 h", "setting": "[2]", "result": 100, "unit": "%"}, {"measurement": "IC50", "setting": "α-glucosidase; 37 °C, PNPG substrate, read-out: IC50 for α-Glucosidase", "result": "0.22 ± 0.03", "unit": "µM"}, {"measurement": "α-glucosidase inhibitory activity relative to EGCG", "setting": "α-glucosidase; ratio of IC50 values versus EGCG", "result": 52, "unit": "times"}, {"measurement": "α-glucosidase inhibitory activity relative to acarbose", "setting": "α-glucosidase; ratio of IC50 values versus acarbose", "result": 0.68, "unit": "times"}, {"measurement": "remained after storage", "setting": "[3]", "result": 78, "unit": "%"}, {"measurement": "thermal decomposition temperature", "setting": "[5]", "result": 311.19, "unit": "°C"}, {"measurement": "α-amylase inhibitory activity relative to EGCG", "setting": "[7]", "result": 4.5, "unit": "times"}, {"measurement": "solubility in PBS", "setting": "Solubility in PBS", "result": "insoluble in PBS"}]}]}
